The first series deals with inflammation pain of the rat. The series can be described thus: Effect on the inflammation pain of the rat (Randall-Selitto, yeast-injected paw). The class given is in vivo. To be noted: 0.75 h, After Forty-five Minutes, male Chbb:THOM-rats, oral (esophageal tube), dose raising pain threshold by 50% vs controls. As for the experimental part: The test arrangement corresponded to that indicated by RANDALL-SELITTO [Arch. Int. Pharmacodyn. 111, 409 (1957)]. Male Chbb:THOM-rats having body weights of from 100 to 130 grams received a subplantar injection of 0.1 ml of a 5% suspension of yeast cells in 5.55% glucose solution in a rear paw. At 11/2 and 21/4 hours, respectively, after injection of the phlogistic, the animals received various doses of the test substance as a trituration in 1% methyl cellulose (1 ml/100 g of animal) through an esophageal tube. Control animals received corresponding volumes of the vehicle.
Ninety and forty-five minutes, respectively, after application of the test substance (that is, three hours after the subplantar injection of the yeast suspension), the threshold pain was determined in the rat in terms of the […] of bearing pressure on a paw, based on the weight of the animals.
From the pain threshold, measured according to the different doses of the test substance, and with the linear regression analysis according to LINDER [Statistische Methoden, 4th ed., pp. 148-162, Birkhauser, Basel, 1964], and ED50 dose with the confidence limits according to FIELLER [Quart. J. Pharm. Pharmacol., 17, 117 (1944)] was determined. The ED50 dose is one in which the pain threshold rises by 50%, as compared to the controls.
One may read the ED50 as the dose that gives a 50% effect, or the effect in half of the subjects. Read a low ED50 as greater potency. `O=c1[nH]c2c(Cl)cccc2s1` [H, 4-chloro-benzothiazol-2(3H)-one] had an ED50 of 24 mg/kg.
As to `O=c1[nH]c2cccc(Cl)c2s1` [C, 7-chloro-benzothiazol-2(3H)-one], the median effective dose (ED50) is 106 mg/kg.
The compound `O=c1[nH]c2ccc(F)cc2s1` [B, 6-fluoro-benzothiazol-2(3H)-one] displayed an ED50 of 121 mg/kg.
Same read-out and setting: the value for `O=c1[nH]c2ccc(Cl)cc2s1` [D, 6-chloro-benzothiazol-2(3H)-one] was 175 mg/kg.
On the same count and under the same terms, the figure for `Cc1cccc2sc(=O)[nH]c12` [F, 4-methyl-benzothiazol-2(3H)-one] is 174 mg/kg; for `COc1cc2[nH]c(=O)sc2cc1OC` [E, 5,6-dimethoxy-benzothiazol-2(3H)-one] it is 43 mg/kg.
Compound `COc1ccc2sc(=O)[nH]c2c1` [A, 5-methoxy-benzothiazol-2(3H)-one] returned an ED50 of 90 mg/kg.
Still for that read-out and setting: the value for `Cc1ccc2sc(=O)[nH]c2c1` [G, 5-methyl-benzothiazol-2(3H)-one] was 103 mg/kg.

The same series, now with this note: 1.5 h, After Ninety Minutes, male Chbb:THOM-rats, oral (esophageal tube), dose raising pain threshold by 50% vs controls.
For the compound `O=c1[nH]c2c(Cl)cccc2s1` [H, 4-chloro-benzothiazol-2(3H)-one], the ED50 turned out to be 23 mg/kg.
The same measure, in the same setting: the figure for `O=c1[nH]c2cccc(Cl)c2s1` [C, 7-chloro-benzothiazol-2(3H)-one] is 105 mg/kg; for `O=c1[nH]c2ccc(F)cc2s1` [B, 6-fluoro-benzothiazol-2(3H)-one] it is 76 mg/kg; for `O=c1[nH]c2ccc(Cl)cc2s1` [D, 6-chloro-benzothiazol-2(3H)-one] it is 129 mg/kg.
Compound `Cc1cccc2sc(=O)[nH]c12` [F, 4-methyl-benzothiazol-2(3H)-one] displayed a median effective dose (ED50) of 202 mg/kg. Against the preceding compound, the ED50 is about 1.6-fold higher.
Still for that read-out and setting: the value for `COc1cc2[nH]c(=O)sc2cc1OC` [E, 5,6-dimethoxy-benzothiazol-2(3H)-one] was 40 mg/kg; that for `COc1ccc2sc(=O)[nH]c2c1` [A, 5-methoxy-benzothiazol-2(3H)-one] was 150 mg/kg; that for `Cc1ccc2sc(=O)[nH]c2c1` [G, 5-methyl-benzothiazol-2(3H)-one] was 97 mg/kg.

The test system of a further series is heat pain of the mouse. The experiment in a line: Effect on the heat sensitivity of the mouse (hot plate, 52° C.). The class given is in vivo. The conditions noted are these: male Chbb:NMRI (SPF)-mice, oral (esophageal tube), dose increasing time of reaction by 100%. The protocol: The test performed according to a modification of the method described by CHEN and BECKMAN [Science, 113, 631 (1951)] in male Chbb:NMRI (SPF)-mice with an average weight of 20 grams.
The test substances were administered as trituration in 1% methyl cellulose (0.1 ml/10 gm of mouse) by means of an esophageal tube. Before treatment with the test substance, the animals were twice put on the hot plate at an interval of 30 minutes, whereby their individual times of reaction were measured. After treatment with a test substance, the times of reaction of the animals were again measured in an interval of 30 minutes.
From the average maximum increase of the time of reaction obtained after treatment with different doses, and after linear regression analysis according to LINDER, an ED100 dose with the confidence limits according to FIELLER was calculated. The ED100 dose is one which increased the time of reaction by 100%.
In turn, `O=c1[nH]c2c(Cl)cccc2s1` [H, 4-chloro-benzothiazol-2(3H)-one] yielded an ED100 of 125 mg/kg.
For the compound `O=c1[nH]c2ccc(F)cc2s1` [B, 6-fluoro-benzothiazol-2(3H)-one], the ED100 was 165 mg/kg.
With `Cc1cccc2sc(=O)[nH]c12` [F, 4-methyl-benzothiazol-2(3H)-one], the ED100 amounted to 113 mg/kg.
Same read-out and setting: the value for `COc1cc2[nH]c(=O)sc2cc1OC` [E, 5,6-dimethoxy-benzothiazol-2(3H)-one] was 92 mg/kg; that for `COc1ccc2sc(=O)[nH]c2c1` [A, 5-methoxy-benzothiazol-2(3H)-one] was 218 mg/kg.
In turn, `Cc1ccc2sc(=O)[nH]c2c1` [G, 5-methyl-benzothiazol-2(3H)-one] yielded an ED100 of 178 mg/kg.

For another series, the system named is body temperature of the rat. The experiment in a line: Effect on the body temperature of the rat (antipyretic activity). To be noted: Chbb:THOM-rats, oral (esophageal tube), dose decreasing rectal body temperature by 1.5° C. The class given is in vivo. As for the experimental part: The temperature-lowering activity, i.e. antipyretic activity, was tested by the observation of the temperature curve given by rectally measured body temperatures of partially immobilized Chbb:THOM-rats having body weights of between 125 and 150 grams. The body temperatures were measured by thermocouples inserted into rectums. The test substances were administered as a trituration in a 1% methyl cellulose in portions of 1.0 ml/100 gm of animal using an esophageal tube.
From the values for the average maximum decline of temperature, which were gained after the administration of the different doses of the test substance, and after a linear regression analysis according to LINDER, an ED-1.5° C. was calculated with the confidence limits according to FIELLER as the dose which decreases the body temperature by 1.5° C.
The compound `O=c1[nH]c2c(Cl)cccc2s1` [H, 4-chloro-benzothiazol-2(3H)-one] displayed an ED (-1.5 C) of 16 mg/kg.
As to `O=c1[nH]c2ccc(F)cc2s1` [B, 6-fluoro-benzothiazol-2(3H)-one], the ED (-1.5 C) was 83 mg/kg.
The same measure, in the same setting: the value for `O=c1[nH]c2ccc(Cl)cc2s1` [D, 6-chloro-benzothiazol-2(3H)-one] was 103 mg/kg.
As to `Cc1cccc2sc(=O)[nH]c12` [F, 4-methyl-benzothiazol-2(3H)-one], the ED (-1.5 C) was determined as 118 mg/kg.
Consider `COc1cc2[nH]c(=O)sc2cc1OC` [E, 5,6-dimethoxy-benzothiazol-2(3H)-one], for which the ED (-1.5 C) was found to be 29 mg/kg.
On the same count and under the same terms, the value for `COc1ccc2sc(=O)[nH]c2c1` [A, 5-methoxy-benzothiazol-2(3H)-one] was 58 mg/kg; that for `Cc1ccc2sc(=O)[nH]c2c1` [G, 5-methyl-benzothiazol-2(3H)-one] was 37 mg/kg.

Test system in another series: not listed separately
The series can be described thus: Acute toxicity in mice. The format is in vivo. To be noted: mouse, in vivo; Chbb:NMRI (SPF)-mice of both sexes, oral (esophageal tube), deaths within 14 days. As for the experimental part:
(§1) The acute toxicity was determined in Chbb:NMRI (SPF)-mice of both sexes, having an average body weight of 20 gm. The test compounds were administered as a trituration in 1% methyl cellulose (0.5 ml/10 gm of animal) by means of an esophageal tube. The calculation of the LD50 values was effected according to the method of LITCHFIELD and WILCOXON [J. Pharmacol. Exp. Ther. 96, 99 (1949)], based on the percentage of animals which died within 14 days after administration of different doses.
One may read the LD50 as the dose expected to kill half of the subjects tested. A low value points to a more toxic substance. `O=c1[nH]c2cccc(Cl)c2s1` [C, 7-chloro-benzothiazol-2(3H)-one] came in with a 50% lethal dose (LD50) at 336 h of 10000 mg/kg.
The same measure, in the same setting: the value for `O=c1[nH]c2ccc(F)cc2s1` [B, 6-fluoro-benzothiazol-2(3H)-one] was 1650 mg/kg; that for `Cc1cccc2sc(=O)[nH]c12` [F, 4-methyl-benzothiazol-2(3H)-one] was 8000 mg/kg.
`COc1ccc2sc(=O)[nH]c2c1` [A, 5-methoxy-benzothiazol-2(3H)-one] gave an LD50 at 336 h of 1600 mg/kg.
Same read-out and setting: the figure for `Cc1ccc2sc(=O)[nH]c2c1` [G, 5-methyl-benzothiazol-2(3H)-one] is 2650 mg/kg.

Another series concerns mice. The series can be described thus: Acute toxicity in mice. The class given is in vivo. The conditions noted are these: 8000 mg/kg (footnote ** of Table 5), oral, mice, 14 days. As for the experimental part:
as §1
For `Cc1cccc2sc(=O)[nH]c12` [F, 4-methyl-benzothiazol-2(3H)-one], the “animals died after administration of this dose” value is 4 out of 20 animals died.

The same series, now with this note: 10000 mg/kg (footnote * of Table 5), oral, mice, 14 days.
Turning to `O=c1[nH]c2cccc(Cl)c2s1` [C, 7-chloro-benzothiazol-2(3H)-one], the “survival of animals after administration of this dose” value was “all 10 animals survived”.

(Values after patent US4353919A, “Analgesic and antipyretic pharmaceutical compositions containing a benzothiazol-2(3H)-one” (Dr. Karl Thomae Gesellschaft mit beschrankter Haftung, priority 1980, dated 1982).)
